According to patent US20200405696A1, “INHIBITORS OF INDOLEAMINE 2,3-DIOXYGENASE AND/OR TRYPTOPHAN 2,3-DIOXYGENASE” (IDORSIA PHARMACEUTICALS LTD, priority 2018, published 2020):

Key:
[1] = biological target: T1, Recombinant full-length human IDO1 (Homo sapiens, UniProt P14902); assay: IDO1 enzymatic assay (NFK quantified by LCMS); type: biochemical; conditions: 2 nM enzyme, 5 μM L-tryptophan, pH6.5, 30 minutes pre-incubation at RT; mean values when measured multiple times; read-out: hIDO activity (IC50 in nM)
T1 construct: Recombinant full-length human IDO1 with a N-terminal hexahistidine tag; hexahistidine (His6) (N); made in house; host or cells: E. coli
Method in brief: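 His-tagged human IDO1 (2 nM) in pH 6.5 phosphate buffer with ascorbate, methylene blue and catalase was preincubated with compound (10 μM–0.5 nM, 0.6% DMSO) for 30 min at RT. The reaction then ran with 5 μM L-Trp for 30 min. NFK was measured by LCMS against a d5-Trp standard, and IC50 was obtained by four-parameter fit.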

[2] = biological target: T2, Recombinant human TDO comprising amino acids 19-407 (Homo sapiens, UniProt P48775); assay: TDO2 enzymatic assay (NFK quantified by LCMS); type: biochemical; conditions: 15 nM enzyme, 200 μM L-tryptophan, pH7, 30 minutes pre-incubation at RT; mean values when measured multiple times; read-out: hTDO activity (IC50 in nM)
T2 construct: Recombinant human TDO comprising amino acids 19-407 with a N-terminal hexahistidine tag; hexahistidine (His6) (N); made in house; host or cells: E. coli
Method in brief: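 NFK formed over 30 min at RT from 200 μM L-tryptophan was measured by LCMS, normalized to d5-tryptophan, after compound (0.5 nM–10 μM, duplicates, 0.6% DMSO) was preincubated 30 min with 15 nM recombinant His-tagged TDO 19-407 in phosphate buffer pH 7. IC50 from four-parameter logistic fit; repeats averaged.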

T1 sequence (P14902 whole entry): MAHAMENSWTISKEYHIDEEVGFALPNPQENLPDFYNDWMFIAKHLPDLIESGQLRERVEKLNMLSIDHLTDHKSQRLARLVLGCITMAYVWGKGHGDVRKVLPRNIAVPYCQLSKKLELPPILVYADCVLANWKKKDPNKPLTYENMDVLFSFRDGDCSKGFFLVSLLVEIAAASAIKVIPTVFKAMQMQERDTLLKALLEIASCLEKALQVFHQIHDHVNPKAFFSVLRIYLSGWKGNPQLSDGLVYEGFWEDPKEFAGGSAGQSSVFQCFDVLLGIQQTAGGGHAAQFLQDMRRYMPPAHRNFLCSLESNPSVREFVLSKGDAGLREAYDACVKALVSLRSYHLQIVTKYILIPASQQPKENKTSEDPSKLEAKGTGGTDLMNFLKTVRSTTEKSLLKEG
T2 sequence (P48775 19-406 limits assumed): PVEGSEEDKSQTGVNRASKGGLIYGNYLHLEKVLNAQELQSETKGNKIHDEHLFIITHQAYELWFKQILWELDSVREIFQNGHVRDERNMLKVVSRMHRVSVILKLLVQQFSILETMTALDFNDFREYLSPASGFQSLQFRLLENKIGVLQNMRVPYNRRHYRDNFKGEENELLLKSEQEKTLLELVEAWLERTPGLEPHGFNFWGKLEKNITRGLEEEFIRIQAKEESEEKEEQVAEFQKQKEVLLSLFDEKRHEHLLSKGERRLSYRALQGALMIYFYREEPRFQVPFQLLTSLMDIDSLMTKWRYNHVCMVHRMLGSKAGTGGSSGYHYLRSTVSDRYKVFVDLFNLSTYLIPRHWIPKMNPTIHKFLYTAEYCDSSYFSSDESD

SMILES	IC50 [1] [nM]	IC50 [2] [nM]
CS(=O)(=O)CCOc1ccc(-n2cc(C(O)c3c(C4CC4)sc4cncn34)nn2)cc1 (racemic) [Example 205, rac-(2-Cyclopropyl-imidazo[5,1-b]thiazol-3-yl)-{1-[4-(2-methanesulfonyl-ethoxy)-phenyl]-1H-[1,2,3]triazol-4-yl}-methanol]	626	> 10200
NS(=O)(=O)CCCOc1ccc(-n2cc(C(O)c3c(C4CC4)sc4cncn34)nn2)cc1 (racemic) [Example 206, rac-3-(4-{4-[(2-Cyclopropyl-imidazo[5,1-b]thiazol-3-yl)-hydroxy-methyl]-[1,2,3]triazol-1-yl}-phenoxy)-propane-1-sulfonic acid amide]	7.11	> 10200
Cc1cc(O)ccc1-n1cc(C(O)c2c(C3CC3)sc3cncn23)nn1 (racemic) [Example 207, rac-4-{4-[(2-Cyclopropyl-imidazo[5,1-b]thiazol-3-yl)-hydroxy-methyl]-[1,2,3]triazol-1-yl}-3-methyl-phenol]	26.9	> 10200
Oc1ccc(-n2cc(C(O)c3c(C4CC4)sc4cncn34)nn2)c(F)c1 (racemic) [Example 208, rac-4-{4-[(2-Cyclopropyl-imidazo[5,1-b]thiazol-3-yl)-hydroxy-methyl]-[1,2,3]triazol-1-yl}-3-fluoro-phenol]	9.58	6400
Oc1ccc(-n2cc(C(O)c3c(C4CC4)sc4cncn34)nn2)cc1C(F)(F)F (racemic) [Example 209, rac-4-{4-[(2-Cyclopropyl-imidazo[5,1-b]thiazol-3-yl)-hydroxy-methyl]-[1,2,3]triazol-1-yl}-2-trifluoromethyl-phenol]	22.1	> 10200
Oc1ccc(-n2cc(C(O)c3c(C4CC4)sc4cncn34)nn2)cc1OC(F)(F)F (racemic) [Example 210, rac-4-{4-[(2-Cyclopropyl-imidazo[5,1-b]thiazol-3-yl)-hydroxy-methyl]-[1,2,3]triazol-1-yl}-2-trifluoromethoxy-phenol]	23.5	> 10200
Cc1cc(-n2cc(C(O)c3c(C4CC4)sc4cncn34)nn2)ccc1O (racemic) [Example 211, rac-4-{4-[(2-Cyclopropyl-imidazo[5,1-b]thiazol-3-yl)-hydroxy-methyl]-[1,2,3]triazol-1-yl}-2-methyl-phenol]	15.8	> 10200
Oc1ccc(-n2cc(C(O)c3c(C4CC4)sc4cncn34)nn2)c(Cl)c1 (racemic) [Example 212, rac-3-Chloro-4-{4-[(2-cyclopropyl-imidazo[5,1-b]thiazol-3-yl)-hydroxy-methyl]-[1,2,3]triazol-1-yl}-phenol]	10.5	6190
Oc1ccc(-n2cc(C(O)c3c(C4CC4)sc4cncn34)nn2)c(OC(F)(F)F)c1 (racemic) [Example 213, rac-4-{4-[(2-Cyclopropyl-imidazo[5,1-b]thiazol-3-yl)-hydroxy-methyl]-[1,2,3]triazol-1-yl}-3-trifluoromethoxy-phenol]	199	2620
Oc1ccc(-n2cc(C(O)c3c(C4CC4)sc4cncn34)nn2)c(C(F)(F)F)c1 (racemic) [Example 214, rac-4-{4-[(2-Cyclopropyl-imidazo[5,1-b]thiazol-3-yl)-hydroxy-methyl]-[1,2,3]triazol-1-yl}-3-trifluoromethyl-phenol]	127	8890
Oc1cccc(-n2cc(C(O)c3c(C4CC4)sc4cncn34)nn2)c1 (racemic) [Example 215, rac-3-{4-[(2-Cyclopropyl-imidazo[5,1-b]thiazol-3-yl)-hydroxy-methyl]-[1,2,3]triazol-1-yl}-phenol]	27.6	> 10200
COc1ccc(-n2cc(C(O)c3c(C4CC4)sc4cncn34)nn2)cc1O (racemic) [Example 216, rac-5-{4-[(2-Cyclopropyl-imidazo[5,1-b]thiazol-3-yl)-hydroxy-methyl]-[1,2,3]triazol-1-yl}-2-methoxy-phenol]	29.1	> 10200
Oc1cc(-n2cc(C(O)c3c(C4CC4)sc4cncn34)nn2)ccc1Cl (racemic) [Example 217, rac-2-Chloro-5-{4-[(2-cyclopropyl-imidazo[5,1-b]thiazol-3-yl)-hydroxy-methyl]-[1,2,3]triazol-1-yl}-phenol]	9.6	> 10200
Cc1ccc(-n2cc(C(O)c3c(C4CC4)sc4cncn34)nn2)cc1O (racemic) [Example 218, rac-5-{4-[(2-Cyclopropyl-imidazo[5,1-b]thiazol-3-yl)-hydroxy-methyl]-[1,2,3]triazol-1-yl}-2-methyl-phenol]	24.1	> 10200
Oc1cc(-n2cc(C(O)c3c(C4CC4)sc4cncn34)nn2)cc(C(F)(F)F)c1 (racemic) [Example 219, rac-3-{4-[(2-Cyclopropyl-imidazo[5,1-b]thiazol-3-yl)-hydroxy-methyl]-[1,2,3]triazol-1-yl}-5-trifluoromethyl-phenol]	63.2	> 10200
Cc1cc(O)cc(-n2cc(C(O)c3c(C4CC4)sc4cncn34)nn2)c1 (racemic) [Example 220, rac-3-{4-[(2-Cyclopropyl-imidazo[5,1-b]thiazol-3-yl)-hydroxy-methyl]-[1,2,3]triazol-1-yl}-5-methyl-phenol]	27.2	> 10200
Oc1cc(Cl)ccc1-n1cc(C(O)c2c(C3CC3)sc3cncn23)nn1 (racemic) [Example 221, rac-5-Chloro-2-{4-[(2-cyclopropyl-imidazo[5,1-b]thiazol-3-yl)-hydroxy-methyl]-[1,2,3]triazol-1-yl}-phenol]	90.2	> 10200
OC(c1cnn(-c2ccc3c(c2)OCCO3)c1)c1c(C2CC2)sc2cncn12 (racemic) [Example 222, rac-(2-Cyclopropyl-imidazo[5,1-b]thiazol-3-yl)-[1-(2,3-dihydro-benzo[1,4]dioxin-6-yl)-1H-pyrazol-4-yl]-methanol]	97.2	7880
COc1ccc(-n2cc(C(O)c3c(C4CC4)sc4cncn34)cn2)cn1 (racemic) [Example 223, rac-(2-Cyclopropyl-imidazo[5,1-b]thiazol-3-yl)-[1-(6-methoxy-pyridin-3-yl)-1H-pyrazol-4-yl]-methanol]	164	> 10200
CC(=O)Nc1ccc(-n2cc(C(O)c3c(C4CC4)sc4cncn34)cn2)cc1 (racemic) [Example 224, rac-N-(4-{4-[(2-Cyclopropyl-imidazo[5,1-b]thiazol-3-yl)-hydroxy-methyl]-pyrazol-1-yl}-phenyl)-acetamide]	1100	> 10200
CCc1sc2cncn2c1C(O)c1cn(-c2ccc(S(=O)(=O)NC)cc2)nn1 (racemic) [Example 225, rac-4-{4-[(2-Ethyl-imidazo[5,1-b]thiazol-3-yl)-hydroxy-methyl]-[1,2,3]triazol-1-yl}-N-methyl-benzenesulfonamide]	47.2	> 10200
CNS(=O)(=O)c1ccc(-n2cc(C(O)c3c(C4CC4)sc4cncn34)nn2)cc1 (racemic) [Example 226, rac-4-{4-[(2-Cyclopropyl-imidazo[5,1-b]thiazol-3-yl)-hydroxy-methyl]-[1,2,3]triazol-1-yl}-N-methyl-benzenesulfonamide]	63.6	> 10200
Cn1ccc2cc(-n3cc(C(O)c4c(C5CC5)sc5cncn45)cn3)cnc21 (racemic) [Example 229, rac-(2-Cyclopropyl-imidazo[5,1-b]thiazol-3-yl)-[1-(1-methyl-1H-pyrrolo[2,3-b]pyridin-5-yl)-1H-pyrazol-4-yl]-methanol]	43.7	1440
CCc1sc2cncn2c1C(O)c1cn(-c2ccc(NC(=O)c3ccccc3)cc2)nn1 (racemic) [Example 230, rac-N-(4-{4-[(2-Ethyl-imidazo[5,1-b]thiazol-3-yl)-hydroxy-methyl]-[1,2,3]triazol-1-yl}-phenyl)-benzamide]	28.7	2710
CCOC(=O)COc1ccc(-n2cc(C(O)c3c(C4CC4)sc4cncn34)nn2)cc1 (racemic) [Example 231, rac-(4-{4-[(2-Cyclopropyl-imidazo[5,1-b]thiazol-3-yl)-hydroxy-methyl]-[1,2,3]triazol-1-yl}-phenoxy)-acetic acid ethyl ester]	22.3	> 10200
CCc1cc(-n2cc(C(O)c3c(C4CC4)sc4cncn34)nn2)ccc1O (racemic) [Example 232, rac-4-{4-[(2-Cyclopropyl-imidazo[5,1-b]thiazol-3-yl)-hydroxy-methyl]-[1,2,3]triazol-1-yl}-2-ethyl-phenol]	40.1	> 10200
N#Cc1ccc(-n2cc(C(O)c3c(C4CC4)sc4cncn34)nn2)cc1O (racemic) [Example 233, rac-4-{4-[(2-Cyclopropyl-imidazo[5,1-b]thiazol-3-yl)-hydroxy-methyl]-[1,2,3]triazol-1-yl}-2-hydroxy-benzonitrile]	20.3	> 10200
CCc1sc2cncn2c1C(O)c1cn(-c2ccc(NC(=O)OC(C)(C)C)cc2)nn1 (racemic) [Example 234, rac-(4-{4-[(2-Ethyl-imidazo[5,1-b]thiazol-3-yl)-hydroxy-methyl]-[1,2,3]triazol-1-yl}-phenyl)-carbamic Acid Tert-Butyl Ester]	36.7	7940
